Experimental data as given in patent publication US11612604B2, “Methods of treating cancer with PLK4 inhibitors” (LUDWIG INSTITUTE FOR CANCER RESEARCH LTD, priority 2017, dated 2023).

Each compound was assayed against T1, PLK4 (Homo sapiens, UniProt O00444) (assay: Activity (IC50) of the Table 1 compounds as PLK4 inhibitors). Details: Table 1, IC50 class.
T1 sequence (O00444 1-970): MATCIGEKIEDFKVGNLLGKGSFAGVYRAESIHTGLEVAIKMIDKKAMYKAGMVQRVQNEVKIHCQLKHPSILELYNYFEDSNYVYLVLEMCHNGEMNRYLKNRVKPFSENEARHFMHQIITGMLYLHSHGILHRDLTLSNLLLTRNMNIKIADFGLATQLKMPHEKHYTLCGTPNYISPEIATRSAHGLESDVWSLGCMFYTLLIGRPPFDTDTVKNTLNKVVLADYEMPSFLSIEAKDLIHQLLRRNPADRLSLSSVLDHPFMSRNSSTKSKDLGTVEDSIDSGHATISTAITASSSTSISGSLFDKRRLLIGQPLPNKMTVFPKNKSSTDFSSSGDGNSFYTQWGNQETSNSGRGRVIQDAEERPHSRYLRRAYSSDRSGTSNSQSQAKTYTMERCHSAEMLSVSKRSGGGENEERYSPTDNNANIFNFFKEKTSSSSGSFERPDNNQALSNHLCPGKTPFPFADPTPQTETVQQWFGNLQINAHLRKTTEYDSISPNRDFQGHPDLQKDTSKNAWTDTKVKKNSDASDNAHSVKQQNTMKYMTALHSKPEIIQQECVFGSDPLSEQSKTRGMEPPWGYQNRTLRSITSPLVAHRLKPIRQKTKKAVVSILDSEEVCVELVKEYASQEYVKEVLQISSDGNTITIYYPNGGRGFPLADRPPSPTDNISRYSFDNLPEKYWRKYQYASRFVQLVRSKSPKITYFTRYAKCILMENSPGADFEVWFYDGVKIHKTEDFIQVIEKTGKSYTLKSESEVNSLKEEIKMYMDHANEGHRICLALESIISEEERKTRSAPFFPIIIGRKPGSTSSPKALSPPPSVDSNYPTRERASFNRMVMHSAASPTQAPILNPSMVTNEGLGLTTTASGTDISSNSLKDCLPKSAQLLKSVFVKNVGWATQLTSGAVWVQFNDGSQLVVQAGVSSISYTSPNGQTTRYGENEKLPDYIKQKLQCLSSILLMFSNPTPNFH
Assay type: biochemical
Work on `Cc1cc(Nc2cc(C)[nH]n2)nc(Sc2ccc(NC(=O)C3CC3)cc2)n1` yielded an IC50 of under 100 nM. Compound `COCCNc1nc(Sc2ccc(NC(=O)C3CC3)cc2)nc(Nc2cc(C)[nH]n2)c1OC` has an IC50 of under 100 nM. `COc1c(Nc2cc(C)[nH]n2)nc(Sc2ccc(NC(=O)C3CC3)cc2)nc1N1CCCCC1` showed an IC50 of under 100 nM. With `COc1c(Nc2cc(C)[nH]n2)nc(Sc2ccc(S(=O)(=O)Cc3cc(F)cc([N+](=O)[O-])c3)cc2)nc1N1CCN(CCN(C)C)CC1` the IC50 was under 100 nM. `COc1c(Nc2cc(C)[nH]n2)nc(Sc2ccc(S(=O)(=O)Cc3cccc([N+](=O)[O-])c3Cl)cc2)nc1N1CCN(CCN(C)C)CC1` showed an IC50 of under 100 nM. Compound `COc1c(Nc2cc(C)[nH]n2)nc(Sc2ccc(S(=O)(=O)Cc3cccc([N+](=O)[O-])c3F)cc2F)nc1N1CCN(CCN(C)C)CC1` has an IC50 of under 100 nM. `COc1c(Nc2cc(C)[nH]n2)nc(Sc2ccc(S(=O)(=O)Cc3cccc([N+](=O)[O-])c3)cc2F)nc1N1CCOCC1` showed an IC50 of under 100 nM. `COc1c(Nc2cc(C)[nH]n2)nc(Sc2ccc(S(=O)(=O)Cc3cccc([N+](=O)[O-])c3)cc2F)nc1N1CCOC[C@@H]1C` showed an IC50 of under 100 nM. With `COc1c(Nc2cc(C)[nH]n2)nc(Sc2ccc(S(=O)(=O)Cc3cccc([N+](=O)[O-])c3C#N)cc2)nc1N1CCN(CCN(C)C)CC1` the IC50 was under 100 nM. Compound `COc1c(Nc2cc(C)[nH]n2)nc(Sc2ccc(S(=O)(=O)Cc3cccc([N+](=O)[O-])c3F)cc2)nc1N1CCC(O)CC1` has an IC50 of under 100 nM. `COc1c(Nc2cc(C)[nH]n2)nc(Sc2ccc(S(=O)(=O)Cc3cccc([N+](=O)[O-])c3O)cc2)nc1N1CCN(CCN(C)C)CC1` was tested, and the IC50 was under 100 nM. In the case of `COc1c(Nc2cc(C)[nH]n2)nc(Sc2ccc(S(=O)(=O)Cc3cccc([N+](=O)[O-])c3)cc2)nc1N1C2CCC1COC2`, the IC50 is reported as under 100 nM. In the case of `COc1c(Nc2cc(C)[nH]n2)nc(Sc2ccc(S(C)(=O)=O)cc2F)nc1N1CCC(CCN(C)C)CC1`, the IC50 is reported as under 100 nM. Work on `COc1c(Nc2cc(C)[nH]n2)nc(Sc2ccc(S(C)(=O)=O)cc2F)nc1N1CCN(CCN(C)C)CC1` yielded an IC50 of under 100 nM. For `COc1c(Nc2cc(C)[nH]n2)nc(Sc2ccc(S(C)(=O)=O)cc2Cl)nc1N1CCN(CCN(C)C)CC1`, the IC50 was under 100 nM. Work on `COc1c(Nc2cc(C)[nH]n2)nc(Sc2ccc(S(C)(=O)=O)cc2Cl)nc1N1CCC(CCN(C)C)CC1` yielded an IC50 of under 100 nM. `CCS(=O)(=O)c1ccc(Sc2nc(Nc3cc(C)[nH]n3)c(OC)c(N3CCOCC3)n2)c(Cl)c1` was tested, and the IC50 was under 100 nM. For `COc1c(Nc2cc(C)[nH]n2)nc(Sc2ccc(S(=O)(=O)Cc3cccc([N+](=O)[O-])c3F)cc2F)nc1N1CCOC[C@H]1C`, the IC50 was under 100 nM. Compound `COc1c(Cc2cc(C)[nH]n2)nc(Sc2ccc(S(=O)(=O)Cc3cccc([N+](=O)[O-])c3)cc2F)nc1N1CCOC[C@H]1C` has an IC50 of under 100 nM. `CCS(=O)(=O)c1ccc(Sc2nc(Nc3cc(C)[nH]n3)c(OC)c(N3CCN(CCN(C)C)CC3)n2)c(Cl)c1` showed an IC50 of under 100 nM. `CCS(=O)(=O)c1ccc(Sc2nc(Nc3cc(C)[nH]n3)c(OC)c(N3CCN(C)CC3)n2)c(Cl)c1` showed an IC50 of under 100 nM. `CCS(=O)(=O)c1ccc(Sc2nc(Nc3cc(C)[nH]n3)c(OC)c(N3CCN(CCN(C)C)CC3)n2)c(F)c1` gave an IC50 of under 100 nM. With `CCS(=O)(=O)c1ccc(Sc2nc(Nc3cc(C)[nH]n3)c(OC)c(N3CCC(CCN(C)C)CC3)n2)c(F)c1` the IC50 was under 100 nM. `CCS(=O)(=O)c1ccc(Sc2nc(Cc3cc(C)[nH]n3)c(OC)c(N3CCOC[C@@H]3C)n2)c(Cl)c1` gave an IC50 of under 100 nM. Compound `COc1c(Cc2cc(C)[nH]n2)nc(Sc2ccc(S(C)(=O)=O)cc2F)nc1N1CCOC[C@@H]1C` has an IC50 of under 100 nM. For `COc1c(Nc2cc(C)[nH]n2)nc(Sc2ccc(S(=O)(=O)Cc3cccc(F)c3F)cc2F)nc1N1CCCCC1`, the IC50 was under 100 nM. Compound `COc1c(Nc2cc(C)[nH]n2)nc(Sc2ccc(S(=O)(=O)Cc3cccc(F)c3F)cc2F)nc1N1CCOCC1` has an IC50 of under 100 nM. `COc1c(Nc2cc(C)[nH]n2)nc(Sc2ccc(S(=O)(=O)Cc3cccc(F)c3F)cc2F)nc1N1CCN(CCN(C)C)CC1` gave an IC50 of under 100 nM. In the case of `COc1c(Cc2cc(C)[nH]n2)nc(Sc2ccc(S(=O)(=O)Cc3cccc(F)c3F)cc2F)nc1N1CCOC[C@@H]1C`, the IC50 is reported as under 100 nM. `COc1c(Nc2cc(C)[nH]n2)nc(Sc2ccc(S(=O)(=O)Cc3c(F)ccc(F)c3F)cc2F)nc1N1CCN(CCN(C)C)CC1` gave an IC50 of under 100 nM. `COc1c(Nc2cc(C)[nH]n2)nc(Sc2ccc(S(=O)(=O)Cc3cccc([N+](=O)[O-])c3F)cc2F)nc1N1CCOC[C@@H]1C` showed an IC50 of under 100 nM. `COc1c(Nc2cc(C)[nH]n2)nc(Sc2ccc(S(=O)(=O)Cc3cccc([N+](=O)[O-])c3)cc2)nc1N1CCOC[C@@H]1CO` was tested, and the IC50 was under 100 nM. `COc1c(Nc2cc(C)[nH]n2)nc(Sc2ccc(S(=O)(=O)Cc3cccc(Cl)c3F)cc2F)nc1N1CCOCC1` showed an IC50 of under 100 nM. With `COc1c(Nc2cc(C)[nH]n2)nc(Sc2ccc(S(=O)(=O)Cc3cccc(Br)c3F)cc2F)nc1N1CCOCC1` the IC50 was under 100 nM. Compound `COc1c(Nc2cc(C)[nH]n2)nc(Sc2ccc(S(=O)(=O)Cc3c(F)c(F)cc(F)c3F)cc2F)nc1N1CCOCC1` has an IC50 of under 100 nM. Compound `COc1c(Nc2cc(C)[nH]n2)nc(Sc2ccc(S(=O)(=O)Cc3cccc(C(F)(F)F)c3F)cc2F)nc1N1CCOCC1` has an IC50 of under 100 nM. Work on `COc1c(Nc2cc(C)[nH]n2)nc(Sc2ccc(S(=O)(=O)Cc3cccc(C#N)c3F)cc2F)nc1N1CCOCC1` yielded an IC50 of under 100 nM. `COc1c(Nc2cc(C)[nH]n2)nc(Sc2ccc(S(=O)(=O)Cc3cccc(N)c3F)cc2F)nc1N1CCOCC1` gave an IC50 of under 100 nM. In the case of `COc1c(Nc2cc(C)[nH]n2)nc(Sc2ccc(S(=O)(=O)C(F)c3cccc([N+](=O)[O-])c3F)cc2F)nc1N1CCOCC1` (centres unmarked), the IC50 is reported as under 100 nM. In the case of `COC(=O)c1cccc(CS(=O)(=O)c2ccc(Sc3nc(Nc4cc(C)[nH]n4)c(OC)c(N4CCOCC4)n3)c(F)c2)c1F`, the IC50 is reported as under 100 nM. For `COc1c(Nc2cc(C)[nH]n2)nc(Sc2ccc(S(=O)(=O)Cc3cccc(C(=O)N(C)C)c3F)cc2F)nc1N1CCOCC1`, the IC50 was under 100 nM. `COc1c(Nc2cc(C)[nH]n2)nc(Sc2ccc(S(=O)(=O)Cc3cccc(C(N)=O)c3F)cc2F)nc1N1CCOCC1` was tested, and the IC50 was under 100 nM. For `COc1c(Nc2cc(C)[nH]n2)nc(Sc2ccc(S(=O)(=O)Cc3cccc([N+](=O)[O-])c3F)cc2F)nc1N1CCOC[C@@H]1CO`, the IC50 was under 100 nM. `COc1c(Nc2cc(C)[nH]n2)nc(Sc2ccc(S(=O)(=O)Cc3cccc(Br)c3F)cc2F)nc1N1CCCCC1` gave an IC50 of under 100 nM. For `COc1c(Nc2cc(C)[nH]n2)nc(Sc2ccc(S(=O)(=O)Cc3cccc(I)c3F)cc2F)nc1N1CCOCC1`, the IC50 was under 100 nM. With `COc1c(Nc2cc(C)[nH]n2)nc(Sc2ccc(S(=O)(=O)c3cccc([N+](=O)[O-])c3)cc2F)nc1N1CCOCC1` the IC50 was under 100 nM. Compound `COc1c(Nc2cc(C)[nH]n2)nc(Sc2ccc(S(=O)(=O)c3cccc([N+](=O)[O-])c3F)cc2F)nc1N1CCOCC1` has an IC50 of under 100 nM. With `COc1c(Nc2cc(C)[nH]n2)nc(Sc2ccc(S(=O)(=O)C(F)c3cccc([N+](=O)[O-])c3F)cc2F)nc1N1CCN(CCN(C)C)CC1` (centres unmarked) the IC50 was under 100 nM. `COc1c(Nc2cc(C)[nH]n2)nc(Sc2ccc(C#Cc3cccc([N+](=O)[O-])c3F)cc2F)nc1N1CCOCC1` was tested, and the IC50 was under 100 nM. `COc1c(Nc2cc(C)[nH]n2)nc(Sc2ccc(/C=C/c3cccc([N+](=O)[O-])c3F)cc2F)nc1N1CCOCC1` showed an IC50 of under 100 nM. Compound `COc1c(Nc2cc(C)[nH]n2)nc(Sc2ccc(CCc3cccc([N+](=O)[O-])c3F)cc2F)nc1N1CCOCC1` has an IC50 of under 100 nM. `COc1c(Nc2cc(C)[nH]n2)nc(Sc2ccc(-c3cc4cccc([N+](=O)[O-])c4o3)cc2F)nc1N1CCOCC1` showed an IC50 of 100 to 1000 nM. For `COc1c(Nc2cc(C)[nH]n2)nc(Sc2ccc(C(=O)Cc3cccc([N+](=O)[O-])c3F)cc2F)nc1N1CCOCC1`, the IC50 was under 100 nM.
